Test results reported in patent publication US11518764B2, “Substituted heteroaryls as inhibitors of the BCL6 BTB domain protein-protein interaction” (Ontario Institute for Cancer Research (OICR), priority 2018, dated 2022).

Legend:
[1] = molecular target: BCL6 BTB domain (Homo sapiens (Human), UniProt P41182); assay: Surface plasmon resonance (SPR) assay; assay type: binding; conditions: BCL6 BTB domain captured on SA chip, single cycle kinetics
[2] = tested on: BCL6 reporter construct (3xBCL6-TK-Luc) in SuDHL4 cells; assay: Cell-based luciferase assay; conditions: Homo sapiens, SU-DHL-4, 48 h, read-out: Luciferase-Assay EC50, uM), SuDHL4-3xBCL6-TK-Luc cells, two days, high dose 10 uM
Method in brief: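 SuDHL4 cells stably carrying a 3×BCL6-site TK-promoter firefly luciferase reporter, seeded at 15,000 cells/well, were dosed over a 10-point range (top 10 uM) and grown two days at 37 °C, 5% CO2. Luminescence then read after adding neolite reagent at room temperature.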

[3] = tested on: Karpas422 cells; assay: Tumor cell growth inhibition assay; assay type: cell-based; conditions: Homo sapiens, KARPAS-422, 144 h, read-out: Tumor Growth Inhibition in Karpas-422 (IC50, uM), Karpas422 cells, six days, ATPlite
Method in brief: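 Growth inhibition was measured by ATPlite luminescence after six days of culture at 37° C. in 5% CO2. Karpas422 cells were seeded at 2,000 per well in Alpha-MEM plus 10% FBS. Compounds were given as a 10-point concentration series with a highest dose of 5 uM.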

Compound | Kd [1] [nM] | EC50 [2] [µM] | IC50 [3] [µM]
CN(C)c1cc(NC(=O)Cn2cc(-c3cc(Cl)c(O)c(C(N)=O)c3)c3c(=O)n(C)cnc32)c(Cl)c(F)n1 [Compound I-421] | 14.7 | 0.154 | 0.154
CN(C)c1cc(NC(=O)Cn2cc(-c3cc(F)c(O)c(C(N)=O)c3)c3c(=O)n(C)cnc32)c(Cl)c(F)n1 [Compound I-423] | 5.06 | 0.143 | 0.0391
C[C@@H](C1CC1)N1CCN(c2cc(NC(=O)Cn3cc(-c4cc(C(N)=O)c(O)c(F)c4F)c4c(=O)n(C)cnc43)c(Cl)cn2)[C@@H](C)C1 [Compound I-424] | 26.1 | 0.309 | 0.157
C[C@H](C1CC1)N1CCN(c2cc(NC(=O)Cn3cc(-c4cc(C(N)=O)c(O)c(F)c4F)c4c(=O)n(C)cnc43)c(Cl)cn2)[C@@H](C)C1 [Compound I-425] | 44.7 | 0.629 | 0.624
CCN1CCN(c2cc(NC(=O)Cn3cc(-c4cc(C(N)=O)c(O)c(F)c4F)c4c(=O)n(C)cnc43)c(Cl)c(F)n2)[C@@H](C)C1 [Compound I-426] | 17.7 | 0.226 | 0.128
CCN1CCN(c2cc(NC(=O)Cn3cc(-c4cc(Cl)c(O)c(C(N)=O)c4)c4c(=O)n(C)cnc43)c(Cl)c(F)n2)[C@@H](C)C1 [Compound I-427] | 13.8 | 0.156 | 0.114
CCN1CCN(c2cc(NC(=O)Cn3cc(-c4cc(F)c(O)c(C(N)=O)c4)c4c(=O)n(C)cnc43)c(Cl)c(F)n2)[C@@H](C)C1 [Compound I-428] | 2.35 | 0.102 | 0.0682
Cc1nc2c(c(-c3cc(C(N)=O)c(O)c(F)c3F)cn2CC(=O)Nc2cc(N3CCN(C4COC4)C[C@@H]3C)nc(F)c2Cl)c(=O)n1C [Compound I-429] | 10.9 | 0.162 | 0.154
C[C@H]1CN(C)CCN1c1cc(NC(=O)Cn2cc(-c3cc(F)c(O)c(C(N)=O)c3)c3c(=O)n(CCC(=O)c4cnn(C)c4)cnc32)c(Cl)c(F)n1 [Compound I-430, (S)-5-(7-(2-((3-chloro-6-(2,4-dimethylpiperazin-1-yl)-2-fluoropyridin-4-yl)amino)-2-oxoethyl)-3-(3-(1-methyl-1H-pyrazol-4-yl)-3-oxopropyl)-4-oxo-4,7-dihydro-3H-pyrrolo[2,3-d]pyrimidin-5-yl)-3-fluoro-2-hydroxybenzamide] | 23.2 | 0.622 | 0.38
CCN1CCN(c2cc(NC(=O)Cn3cc(-c4cc(Cl)c(O)c(C(N)=O)c4)c4c(=O)n(C)c(C)nc43)c(Cl)cn2)[C@@H](C)C1 [Compound I-431] | 30.7 | 0.193 | 0.175
C[C@H]1CN(C)CCN1c1cc(NC(=O)Cn2cc(-c3cc(F)c(O)c(C(N)=O)c3)c3c(=O)n(CC#Cc4cnn(C)c4)cnc32)c(Cl)c(F)n1 [Compound I-432, (S)-5-(7-(2-((3-chloro-6-(2,4-dimethylpiperazin-1-yl)-2-fluoropyridin-4-yl)amino)-2-oxoethyl)-3-(3-(1-methyl-1H-pyrazol-4-yl)prop-2-yn-1-yl)-4-oxo-4,7-dihydro-3H-pyrrolo[2,3-d]pyrimidin-5-yl)-3-fluoro-2-hydroxybenzamide] | 2.39 | 0.0347 | 0.0181
CN(C)C1CN(c2cc(NC(=O)Cn3cc(-c4cc(F)c(O)c(C(N)=O)c4)c4c(=O)n(C)cnc43)c(Cl)cn2)C1 [Compound I-433] | 8.42 | 0.548 | 0.201
Cc1nc2c(c(-c3cc(Cl)c(O)c(C(N)=O)c3)cn2CC(=O)Nc2cc(N3CCN(C4COC4)C[C@@H]3C)nc(F)c2Cl)c(=O)n1C [Compound I-434] | 5.45 | 0.0381 | 0.05
CCN1CCN(c2cc(NC(=O)Cn3cc(-c4cc(C(N)=O)c(O)c(F)c4F)c4c(=O)n(C)c(C)nc43)c(Cl)cn2)[C@@H](C)C1 [Compound I-435] | 48.9 | 0.847 | 0.415
Cn1cnc2c(c(-c3cc(F)c(O)c(C(N)=O)c3)cn2CC(=O)Nc2cc(N3C4CCC3COC4)ncc2Cl)c1=O [Compound I-436] | 14.1 | 0.803 | 0.401
C[C@H]1CN(C2COC2)CCN1c1cc(NC(=O)Cn2cc(-c3cc(C(N)=O)c(O)c(F)c3F)c3c(=O)n(C)cnc32)c(Cl)c(F)n1 [Compound I-437] | 11.3 | 0.231 | 0.124
C[C@H]1CN(C2COC2)CCN1c1cc(NC(=O)Cn2cc(-c3cc(F)c(O)c(C(N)=O)c3)c3c(=O)n(C)cnc32)c(Cl)c(F)n1 [Compound I-438] | 2.5 | 0.0686 | 0.0508
CO[C@H]1CC(c2cc(NC(=O)Cn3cc(-c4cc(Cl)c(O)c(C(N)=O)c4)c4c(=O)n(C)cnc43)c(Cl)c(F)n2)C[C@H]1F (stereo partly drawn) [Compound I-439] | 32.9 | 0.267 | 0.28

Compound | Kd [1] [nM] | EC50 [2] [µM] | IC50 [3] [µM]
CO[C@@H]1CC(c2cc(NC(=O)Cn3cc(-c4cc(Cl)c(O)c(C(N)=O)c4)c4c(=O)n(C)cnc43)c(Cl)c(F)n2)C[C@@H]1F (stereo partly drawn) [Compound I-440] | 15.8 | 0.286 | 0.291
CO[C@H]1CN(c2cc(NC(=O)Cn3cc(-c4cc(C(N)=O)c(O)c(F)c4F)c4c(=O)n(C)cnc43)c(Cl)c(F)n2)C[C@H]1F [Compound I-441] | 22.3 | 0.324 | 0.338
CO[C@@H]1CN(c2cc(NC(=O)Cn3cc(-c4cc(C(N)=O)c(O)c(F)c4F)c4c(=O)n(C)cnc43)c(Cl)c(F)n2)C[C@@H]1F [Compound I-442] | 21.8 | 0.386 | 0.266
C[C@H]1CN(CC2CC2)CCN1c1cc(NC(=O)Cn2cc(-c3cc(C(N)=O)c(O)c(F)c3F)c3c(=O)n(C)cnc32)c(Cl)c(F)n1 [Compound I-443] | 18.6 | 0.285 | 0.149
C[C@H]1CN(CC2CC2)CCN1c1cc(NC(=O)Cn2cc(-c3cc(Cl)c(O)c(C(N)=O)c3)c3c(=O)n(C)cnc32)c(Cl)c(F)n1 [Compound I-444] | 19.8 | 0.239 | 0.104
C[C@H]1CN(CC2CC2)CCN1c1cc(NC(=O)Cn2cc(-c3cc(F)c(O)c(C(N)=O)c3)c3c(=O)n(C)cnc32)c(Cl)c(F)n1 [Compound I-445] | 7.32 | 0.0854 | 0.0622
COCCN1CCN(c2cc(NC(=O)Cn3cc(-c4cc(C(N)=O)c(O)c(F)c4F)c4c(=O)n(C)cnc43)c(Cl)c(F)n2)[C@@H](C)C1 [Compound I-446] | 7.29 | 0.157 | 0.137
COCCN1CCN(c2cc(NC(=O)Cn3cc(-c4cc(Cl)c(O)c(C(N)=O)c4)c4c(=O)n(C)cnc43)c(Cl)c(F)n2)[C@@H](C)C1 [Compound I-447] | 9.02 | 0.113 | 0.0709
COCCN1CCN(c2cc(NC(=O)Cn3cc(-c4cc(F)c(O)c(C(N)=O)c4)c4c(=O)n(C)cnc43)c(Cl)c(F)n2)[C@@H](C)C1 [Compound I-448] | 3.42 | 0.0483 | 0.0446
CN1CC2CC(C1)N2c1cc(NC(=O)Cn2cc(-c3cc(Cl)c(O)c(C(N)=O)c3)c3c(=O)n(C)cnc32)c(Cl)cn1 [Compound I-449] | 60.3 | 2.48 | 1.97
C[C@H]1CN(CCO)CCN1c1cc(NC(=O)Cn2cc(-c3cc(C(N)=O)c(O)c(F)c3F)c3c(=O)n(C)cnc32)c(Cl)cn1 [Compound I-452, (S)-5-(7-(2-((5-chloro-2-(4-(2-hydroxyethyl)-2-methylpiperazin-1-yl)pyridin-4-yl)amino)-2-oxoethyl)-3-methyl-4-oxo-4,7-dihydro-3H-pyrrolo[2,3-d]pyrimidin-5-yl)-3,4-difluoro-2-hydroxybenzamide] | 13.6 | 2.6 | 1.52
C[C@H]1CN(CCC(F)(F)F)CCN1c1cc(NC(=O)Cn2cc(-c3cc(C(N)=O)c(O)c(F)c3F)c3c(=O)n(C)cnc32)c(Cl)cn1 [Compound I-453] | 54.3 | 0.41 | 0.16
C[C@@H](C1CC1)N1CCN(c2cc(NC(=O)Cn3cc(-c4cc(C(N)=O)c(O)c(F)c4F)c4c(=O)n(C)cnc43)c(Cl)c(F)n2)[C@@H](C)C1 [Compound I-454] | 13.5 | 0.306 | 0.244
C[C@H](C1CC1)N1CCN(c2cc(NC(=O)Cn3cc(-c4cc(C(N)=O)c(O)c(F)c4F)c4c(=O)n(C)cnc43)c(Cl)c(F)n2)[C@@H](C)C1 [Compound I-455] | 11.2 | 0.307 | 0.204
CC1N=CC(C#CCn2cnc3c(c(-c4cc(C(N)=O)c(O)c(F)c4F)cn3CC(=O)Nc3cc(N4CCN(C)C[C@@H]4C)nc(F)c3Cl)c2=O)=N1 (stereo partly drawn) [Compound I-456] | 1.87 | 0.0858 | 0.0554
C[C@H]1COCCN1c1cc(NC(=O)Cn2cc(-c3cc(F)c(O)c(C(N)=O)c3)c3c(=O)n(CC#Cc4cnn(C)c4)cnc32)c(Cl)cn1 [Compound I-457] | 13.1 | 0.328 | 0.183
CC(C)CN1CCN(c2cc(NC(=O)Cn3cc(-c4cc(C(N)=O)c(O)c(F)c4F)c4c(=O)n(C)cnc43)c(Cl)c(F)n2)[C@@H](C)C1 [Compound I-458] | 55.8 | 0.963 | 3.68
